# Data as given in patent publication US20070135515A1, “Method for producing sorbicillactone a” (priority 2004, published 2007).
# Key:
# neuronal cells = test: Intracellular calcium level [Ca2+]i in primary neurons (Fura-2 fluorescence ratio 340/380 nm); format: cell-based, rat
# Excerpt: Material: The same materials as described in Perovic et al. (1998, Mech. Ageing Dev. 101:1-19) were used. Fura-2-acetoxymethylester (Fura-2-AM) was obtained from Molecular Probes (Leiden, The Netherlands), Dulbecco's modified Eagle's Medium with 4.5 g/L glucose (DMEM/HG), L-glutamic acid (L-Glu), and serotonin (5-HT) from Sigma-Aldrich (Taufkirchen, Germany) and the antibodies mouse-anti-neurofilament (68 kDa) and mouse-anti-glial-fibrillary-acidic-protein (GFAP) from Roche Diagnostics (Mannheim, Germany). Sorbicillactone A of the batch: 2208/2a was used.
# Primary neurons: The cortical cell culture was produced from the brains of 17-18 day-old rat embryos, according to a modified procedure [Freshney (1987) Culture of specific cell types. In: Culture of Animal Cells. A Manual of Basic Technique, A. R. Liss, New York, S. 257-288; Perovic et al. (1994) Eur. J. Pharmacol. (Mol. Pharmacol. Sec.) 288:27-33]. After the isolation, the cerebral-hemispheres were put into Hank's Balanced Salt Solution (HBSS) without Ca^2+ and Mg^2+, and the neuronal cells were subsequently dissociated in HBSS using 0.025% (w/v) trypsin (10 min.; 37° C.). The proteolytic reaction was stopped with 10% (v/v) foetal calf serum (FCS). The single-cell suspensions were centrifuged, and the resulting pellet was taken up into Dulbecco's modified Eagles's Medium with 4.5 g/L glucose (DMEM/HG) (contains 2 mM L-glutamine, 100 mU/L insulin, and 10% (v/v) FCS). The cells were plated in a chamber with poly-L-lysine (5 μg/mL, 300 μl/cm^2) in a cell density of 2.0×10^5 cells/cm^2. After two days the DMEM/HG/10%-FCS-medium was removed and replaced with DMEM/HG/serum-free medium. Two weeks after the isolation, the immune staining took place with anti-neurofilament (68 kDa) as a marker for neurons, and anti-GFAP as a marker for glial cells. The cultures contained >80% neurons; the residual 20% were GFAP-positive cells, mainly astrocytes (Ushijima et al. (1995) Eur. J. Neurosci. 7:1353-9). The neurons were held in an atmosphere of 95% air and 5% CO2 at 37° C.
# Loading of neurons with Fura-2-AM: The intracellular Ca^2+-concentration ([Ca^2+]i) was determined by fluorescence measurements. The ratio of the absorption of the Ca^2+-indicator dye Fura-2-AM at 340 and 380 nm (Grynkiewicz et al. (1985) J. Biol. Chem. 260:3440-50) was decisive. The neurons were loaded with 6 μM Fura-2-AM in DMEM/HG/serum-free medium (supplemented with 1% (w/v) bovine serum albumin) at 37° C. for 60 min. After incubation, the cells were washed two times with medium, and further incubated for 45 min at 37° C.
# Calcium-calibration curve: A calcium-calibration curve was produced according to the methods of Grynkiewicz et al. (1985, J. Biol. Chem. 260:3440-50). Fluorescence pictures were obtained for each buffer at 340 and 380 nm. The quotient from both fluorescence spectra (340/380 nm) was calculated, and depicted as a calibration curve. The quotient (340/380 nm [ratio-value]) of 1.0 corresponds to 228 nM [Ca^2+]i.
# Changes of the calcium level in neurons: In all experimental settings, the cells were first loaded with Fura-2-AM, and subsequently stimulated with different substances (in Locke's solution; 154 mM NaCl; 5.6 mM KCl; 3.6 mM NaHCO3; 5.6 mM glucose, and 10 mM Hepes; pH 7.4; without CaCl2). Sorbicillactone A was dissolved in a concentration of 10 mg/mL in 100% (v/v) DMSO, and stored at −20° C. In the first setting, the neurons were stimulated for 5 min with 0.1% (v/v) DMSO (control); after 10 min 200 μM L-glutamic acid (L-Glu), 200 μM serotonin (5-HT), and 2.5 mM CaCl2 were added to the cells. In a second setting, the effect of L-Glu, 5-HT, and 2.5 mM CaCl2 on the calcium level of pre-incubated neurons (each 5 min with 10 μg/mL sorbicillactone A) was tested. In all experiments, the [Ca^2+]i-level was measured for at least 20-25 min. […]
# [1] = tested on: L5178Y mouse-lymphoma cells (ATCC CRL 1722); test: Genotoxicity: Fast Microassay (strand scission factors, PicoGreen); format: cell-based
# Procedure: Material: PicoGreen was obtained from Molecular Probes (Leiden, The Netherlands), RPMI1640-medium from Sigma-Aldrich (Taufkirchen, Germany), foetal calf serum (FKS) from Gibco (Karlsruhe, Germany), and black microtitre-plates (96-well-plates) from Nunc (Wiesbaden, Germany). Sorbicillactone A of the batch: 2208/2a was used.
# Cells: The genotoxicity of sorbicillactone A was tested on L5178Y mouse-lymphoma cells (ATCC CRL 1722). As described (Müller et al., 1979, Cancer Res. 39:1102-1107), the cells were cultured in RPMI1640-medium supplemented with 10% foetal calf serum (FCS). 10^4 cells/mL were chosen as the inoculum concentration. The cells were incubated for 4 and 24 hours with 1, 3, 10, and 30 μg/mL of sorbicillactone A (1). Following the incubation, the cells were examined with the “Fast Microassay”.
# “Fast Microassay”: The method was performed according to a modified method (Batel et al., 1999, Anal. Biochem., 270:195-200). The cells were washed with 1×PBS for two times. After centrifugation, the pellet was taken up in 1×PBS and diluted to […]. 25 μl each of the cell suspension (about 2.5×10^4 cells per well) were pre-pipetted into black microtitre-plates (96-well-plates, Nunc, Wiesbaden). 25 μl 1×PBS were in the controls. Then, 25 μl of lysis solution (7 M urea, 0.1% (w/v) SDS, 0.2 M EDTA, pH=10.0) with PicoGreen (20 μl conc. PicoGreen per 1 mL of lysis solution) were pipetted into the microtitre-plate. Subsequently, the cells were lysed for 40 min in the dark at room temperature. After the incubation, the denaturation (unwinding) of the DNA occurs by the addition of freshly prepared alkaline solution. This is produced in that 20 mL 20 mM of EDTA, and 32 mL of 20 mM EDTA/100 mM NaOH are adjusted to a pH-value of 12.3. The measurement took place immediately in a fluoroscan at an excitation wavelength of 485 nm, and an emission wavelength of 520 nm, every 3 to 5 min, 20 min in total. The results were given as “strand scission factors” (SSF), and calculated following a time of denaturation (time of unwinding) of 20 min according to the following equation: SSF=log (% dsDNA-sample/% dsDNA-control).
structure (smiles),measurement,setting,value
C/C=C/C=C/C(O)=C1/C(=O)C(C)=C(O)[C@@]2(C)OC(=O)[C@@](C)(NC(=O)/C=C/C(=O)O)[C@@H]12 [sorbicillactone A],effect on [Ca2+]i in neuronal cells,neuronal cells; 10 μg/mL sorbicillactone A alone,nearly no effect
same,reduction in the [Ca2+]i-level,"neuronal cells; pre-incubation 5 min with 10 μg/mL, then 200 μM L-Glu and 2.5 mM CaCl2, p<0.001, FIG. 1A",46.7%
same,reduction of the free calcium concentration compared to the control,"neuronal cells; pre-incubation with 10 μg/mL, then 200 μM 5-HT and 2.5 mM CaCl2, FIG. 1B",77.6%
same,induction of DNA-strand scissions,"[1]; 30 μg/mL, 24 hours of incubation",induced DNA-strand scissions
same,effect on the SSF-values (strand scission factors),"[1]; 1, 3, 10, and 30 μg/mL, 4 hours of incubation, FIG. 3A",nearly no effect
same,increase of the SSF-values,"[1]; 1 to 10 μg/mL, 24 hours","slight, but no significant, increase"
same,increase of the SSF-values (portion of DNA-strand scissions),"[1]; 3 and 30 μg/mL, 24 hours, p<0.001, FIG. 3B",significant increase
